Laboratory results: patent US10314912B2, “Polymer coating compositions and coated products” (Ariste Medical, LLC, priority 2012, dated 2019)

Key:
[1] = HPLC test of drug stability to curing light in coating composition components
Procedure: HPLC tests were performed to assess the effects of various components of the coating composition on drug stability. HPLC analysis was run on the starting 50 μg/ml drug solution as a control. HPLC parameters were as follows: Channel A=>35 mM sodium phosphate pH=7.5 w/1 v % TEA; Channel B=>acetonitrile; 0-50% B 0-10 min, 50% B 10-13 min, 50-0% B 13-15 min, 0% B 6 min post time; 20 μl injections; 1 ml/min; 30° C.; 335 nm. […] Samples tested included: (1) Solvent+Drug; (2) Solvent+Photoinitiator (PI)+Drug; and (3) Solvent+Monomer Component+PI+Drug. […] The Solvent+PI+Drug (Sample 2) samples were prepared as follows: 1% wt/wt IrgaCure® 2959 was added to the 50 μg/ml drug solution solutions and cured according to the parameters described for Formulation 5 in Table 2. The Solvent+Monomer Component+PI+Drug+Drug (Sample 3) were prepared as follows: ˜3 ml Formulation 5 (Table 2) inspired solution with exception of using the 50 μg/ml drug solution and 20 wt % comonomer as the solvent was created and exposed to cure parameters detailed for Formulation 5 (Table 2) followed by HPLC analysis upon blending 1:1 with methanol, to terminate polymerization reaction/free-radicals. Note: polymerization of small volumes of Formulation 5 results in evaporation of the acetone solvent, thereby concentrating the monomers. […] FIG. 5A depicts HPLC chromatograms from the Sample 1 (dark gray line) and Sample 2 (light gray line) without exposure to light. […] FIG. 5B depicts chromatograms from the Sample 1 samples without light exposure and with light exposure. […] FIG. 5C depicts chromatograms from Sample 2 without light exposure and with light exposure. […] FIG. 5D depicts chromatograms from Sample 1 and Sample 3 after exposure to light.

[2] = HPLC of methanol extracts: drug loading of coated ePTFE hernia mesh; assay type: physicochemical; settings: soak in 10 mg/ml of each drug in methanol, ~17 hours, 4° C
Procedure: Specimens were then removed from drug solution and dried in air. Following air-drying, specimens were rinsed in either methanol) or water. For the methanol rinse, specimens were suspended using forceps and agitated by hand in two consecutive 15 ml methanol rinses for 15 seconds, then allowed to air dry. For the water rinse, specimens were transferred to 10 ml of deionized water in conical tubes and aggressively vortexed for 2 minutes. Specimens were then allowed to air dry. The above steps resulting in the following four conditions: (a) 1 coat—water rinse; (b) 3 coats—water rinse; (c) 1 coat—methanol rinse; and (d) 3 coat—methanol rinse.
Dried specimens were individually extracted in 1 ml of methanol at 4° C. for 64 or 76 hours. 20 μl of each extract were run on HPLC to assess the effects of rinse method and number of coating cycles on drug loading of the coatings. HPLC conditions were as follows: 30° C.; 250×3 mm C-18 with 5 μm packing; 280 nm absorbance; Channel A—35 mM Na2HPO4 with 1 vol % triethylamine, pH=8.1 w/phosphoric acid; Channel B—acetonitrile/Running parameters at 1 ml/min: (i) 0-10 minutes—gradient 0-50 vol % Channel B; (ii) 10-20 minutes—50 vol % Channel B; (iii) 20-25 minutes—20-0 vol % Channel B.

CO[C@H]1/C=C/O[C@@]2(C)Oc3c(C)c(O)c4c(O)c(c(/C=N/N5CCN(C)CC5)c(O)c4c3C2=O)NC(=O)/C(C)=C\C=C\[C@H](C)[C@H](O)[C@@H](C)[C@@H](O)[C@@H](C)[C@H](OC(C)=O)[C@@H]1C [rifampin]
drug stability (HPLC peaks) ([1]; 50 μg/ml in acetone, with or without photoinitiator, without exposure to light, FIG. 5A): stable | drug stability (HPLC peaks) ([1]; Sample 1, solvent alone, with light exposure, FIG. 5B): degraded by light exposure | drug stability (HPLC peaks) ([1]; Sample 2, solvent + 1% wt/wt IrgaCure 2959, with light exposure, FIG. 5C): did not protect the drugs from light-induced degradation | absorption of drug into polymerized coating [2]: absorbed into the methacrylate coating matrix
